Data as given in US20210323950A1, “HERBICIDALLY ACTIVE BICYCLIC BENZOYLPYRAZOLES” (Bayer Aktiengesellschaft, priority 2018, published 2021).

Tests used:
Format in all cases: in vivo
[1] = tested on: Amaranthus retroflexus (AMARE); assay: Pre-emergence herbicidal action against AMARE; details: 80 g/ha, scored visually after about 3 weeks vs untreated controls
Source text: (§1) AMARE: Amaranthus retroflexus 1. Pre-Emergence Herbicidal Action and Crop Plant Compatibility Seeds of monocotyledonous and dicotyledonous weed plants and crop plants are placed in plastic or organic planting pots and covered with soil. The compounds of the invention, formulated in the form of wettable powders (WP) or as emulsion concentrates (EC), are then applied onto the surface of the covering soil as aqueous suspension or emulsion with addition of 0.5% additive at a water application rate of […] (converted). After the treatment, the pots are placed in a greenhouse and kept under good growth conditions for the trial plants. After about 3 weeks, the effect of the preparations is scored visually in comparison with untreated controls as percentages. The tables below show the herbicidal activity of numerous compounds according to the invention against important harmful plants. For example, 100% activity=the plants have died, 0% activity=like control plants.

[2] = tested on: Stellaria media (STEME); assay: Pre-emergence herbicidal action against STEME; details: 80 g/ha, scored visually after about 3 weeks vs untreated controls
Source text: as §1, with “STEME: Stellaria media” for “AMARE: Amaranthus retroflexus”

[3] = tested on: Viola tricolor (VIOTR); assay: Pre-emergence herbicidal action against VIOTR; details: 80 g/ha, scored visually after about 3 weeks vs untreated controls
Source text: as §1, with “VIOTR: Viola tricolor” for “AMARE: Amaranthus retroflexus”

[4] = tested on: Amaranthus retroflexus (AMARE); assay: Post-emergence herbicidal action against AMARE; details: 20 g/ha, post-emergence at one-leaf stage, rated visually after about 3 weeks vs untreated controls
Protocol: (§2) AMARE: Amaranthus retroflexus 2. Post-Emergence Herbicidal Action and Crop Plant Compatibility Seeds of monocotyledonous and dicotyledonous weeds and crop plants are placed in sandy loam in plastic or organic planting pots, covered with soil and cultivated in a greenhouse under controlled growth conditions. 2 to 3 weeks after sowing, the test plants are treated at the one-leaf stage. The compounds of the invention, formulated in the form of wettable powders (WP) or as emulsion concentrates (EC), are then sprayed onto the green parts of the plants as aqueous suspension or emulsion with addition of 0.5% additive at a water application rate of […] (converted). After the test plants had been kept in the greenhouse under optimum growth conditions for about 3 weeks, the activity of the preparations is rated visually in comparison to untreated controls. The tables below show the herbicidal activity of numerous compounds according to the invention against important harmful plants. For example, 100% activity=the plants have died, 0% activity=like control plants.

[5] = tested on: Stellaria media (STEME); assay: Post-emergence herbicidal action against STEME; details: 20 g/ha, post-emergence at one-leaf stage, rated visually after about 3 weeks vs untreated controls
Protocol: as §2, with “STEME: Stellaria media” for “AMARE: Amaranthus retroflexus”

[6] = tested on: Setaria viridis (SETVI); assay: Pre-emergence herbicidal action against SETVI; details: 80 g/ha, scored visually after about 3 weeks vs untreated controls
Source text: as §1, with “SETVI: Setaria viridis” for “AMARE: Amaranthus retroflexus”

[7] = tested on: Abutilon theophrasti (ABUTH); assay: Pre-emergence herbicidal action against ABUTH; details: 80 g/ha, scored visually after about 3 weeks vs untreated controls
Source text: as §1, with “ABUTH: Abutilon theophrasti” for “AMARE: Amaranthus retroflexus”

[8] = tested on: Echinochloa crus-galli (ECHCG); assay: Post-emergence herbicidal action against ECHCG; details: 20 g/ha, post-emergence at one-leaf stage, rated visually after about 3 weeks vs untreated controls
Protocol: as §2, with “ECHCG: Echinochloa crus-galli” for “AMARE: Amaranthus retroflexus”

[9] = tested on: Setaria viridis (SETVI); assay: Post-emergence herbicidal action against SETVI; details: 20 g/ha, post-emergence at one-leaf stage, rated visually after about 3 weeks vs untreated controls
Protocol: as §2, with “SETVI: Setaria viridis” for “AMARE: Amaranthus retroflexus”

SMILES	Pre-emergence action against AMARE [1]	Pre-emergence action against STEME [2]	Pre-emergence action against VIOTR [3]	Post-emergence action against AMARE [4]	Post-emergence action against STEME [5]	Pre-emergence action against SETVI [6]	Pre-emergence action against ABUTH [7]	Post-emergence action against ECHCG [8]	Post-emergence action against SETVI [9]
Cc1nn(C)c(O)c1C(=O)c1ccc(C(F)(F)F)c2c1SCCS2 [Example 1-70]	100%	100%	90%	90%	80%				
Cn1ncc(C(=O)c2ccc(C(F)(F)C(F)(F)F)c3c2OCS3(=O)=O)c1O [Example 1-130]	100%	100%		100%	90%				
Cc1nn(C)c(O)c1C(=O)c1ccc(C(F)(F)F)c2c1OCS2 [Example 1-23]	80%	100%		100%	80%	100%	100%		
Cn1nc(C2CC2)c(C(=O)c2ccc(C(F)(F)F)c3c2OCS3)c1O [Example 1-112]	100%	90%	90%	100%	80%			80%	
Cn1ncc(C(=O)c2ccc(C(F)(F)F)c3c2SCCS3)c1O [Example 1-60]	100%	90%	100%	90%	80%				
Cc1nn(C)c(O)c1C(=O)c1ccc(C(F)(F)F)c2c1SCS2(=O)=O [Example 1-93]	100%	90%		90%				80%	
Cn1ncc(C(=O)c2ccc(C(F)(F)F)c3c2SCS3)c1O [Example 1-58]	80%	90%	100%	90%	80%				80%
CCn1ncc(C(=O)c2ccc(C(F)(F)F)c3c2SCS3(=O)=O)c1O [Example 1-89]	100%	100%		90%	80%		90%		
CCn1ncc(C(=O)c2ccc(C(F)(F)C(F)(F)F)c3c2OCS3)c1O [Example 1-131]	100%	90%	100%			100%	100%	80%	80%
